Source: patent US6288085A, “Piperidine derivatives for treating psychoses” (Akzo Nobel N.V., priority 1996, dated 2001)

Assays:
[1] = system: climbing behaviour in mice, induced by apomorphine (dopamine receptors); test: Apomorphine climbing test (ACT) in mice; format: in vivo; settings: Mus musculus, 0.75 mg/kg apomorphine HCl sc after 30 min, scored at 10 and 20 min
Excerpt: Apomorphine Climbing Test In Mice
The ability of dopamine receptor antagonists to inhibit the behavioural effects in rodents caused by dopamine agonists such as apomorphine is a well established criterion for predicting the antipsychotic efficacy of these drugs in man (see e.g. W. C. Bowman and M. J. Rand, Textbook of Pharmacology, 2nd ed., 1980, 15, 6). A particularly relevant test in this respect is the apomorphine climbing test (ACT) which measures the ability of a dopamine antagonist to inhibit the climbing behaviour in mice, induced by the subcutaneous or oral administration of apomorphine. Activity in this test, following systemic and oral administration, has been widely used as a predictor of antipsychotic activity i.e. anti-schizophrenic activity (see e.g. J. T Strupczewski et.al., J. Med. Chem., 1995, 38, 1119). Mice treated with apomorphine HCl tend to adopt a vertical position along the wall of a wire mesh cylinder, standing or climbing. This climbing behaviour is considered to be elicited by apomorphine-mediated stimulation of dopamine receptors. […] Test compounds which modulate this climbing behaviour may have anti-psychotic activity.
The various treatments are randomly distributed over the mice. Each experiment consists of 1+n treatment groups: 1 being a control group of 12 mice receiving apomorphine and vehicle subcutaneously or being a control group of 12 mice receiving apomorphine subcutaneously and vehicle orally; n being (usually 4) compound groups of 12 mice receiving apomorphine and test compound subcutaneously or being compound groups of 12 mice receiving apomorphine subcutaneously and test compound orally.
Experiments are performed in 3 runs of 20 mice each. The mice are marked and weighed, test compound or vehicle is administered subcutaneously and the mice are placed in small Macrolon cages of 17×11×13 cm, 5 mice per cage, or test compound or vehicle is administered orally and the mice are placed in Macrolon cages of 29×11×13 cm, 5 mice per cage. After 30 min 0.75 mg/kg apomorphine HCl is administered subcutaneously in mice treated subcutaneously with vehicle or test compound, or 0.75 mg/kg apomorphine HCl is administered subcutaneously in mice treated orally with vehicle or test compound, and the mice are placed individually in a wire mesh cylinder (diameter 12 cm, height 14 cm).
At 10 min after the treatment with apomorphine the climbing behaviour of each mouse is observed and expressed as a score, according to the following grade: […]
4 paws on the floor score 0
1 or 2 paws holding the wall score 1
3 or 4 paws holding the wall score 2
At 20 min after the treatment with apomorphine the climbing behaviour is observed and scored again. For each treatment group the mean score per mouse is determined. The score of the control group should be at least 1.0; if not, the trial is rejected. The final result per group is expressed as the percentage over the control group.
The results of this test for the present test compounds are denoted in Table I (subcutaneous and oral administration of test compound).

[2] = Catalepsy in rats (CATR); format: in vivo, Male Wistar rats; settings: rat; catalepsy assessed at 60 and 120 minutes after drug administration
Experimental: (§1) Catalepsy in rats: Male Wistar rats (100-125 g, Olac UK) were used for catalepsy experiments. Catalepsy was assessed as described previously (Broekkamp et al, Naunyn Schmiedeberg's Arch. Pharmacol. 338, 191 1988). Briefly, rats were tested in 6 different observation trials in which the animals were placed in abnormal postures and scored positively with one point for maintaining the imposed posture for 10s. The imposed postures were; vertical clinging to a grid, upright standing with a high support for the front paws, extension of hindlegs, placement on back, placement of spatula in the mouth and rotation in a wire mesh cylinder.
(§2) Theoretically a maximum score of 6 can be reached. Catalepsy was assessed at 60 and 120 minutes after drug administration. The data were evaluated by 2 way ANOVAR followed by a Newman Kools post hoc test and ED50 values calculated (Table II).

[3] = system: catalepsy; test: Catalepsy in rats (CATR); format: in vivo, Male Wistar rats
Experimental: as §1, §2

[4] = sc administration of test compound
[5] = po administration of test compound

| SMILES | ED50 [1, 4] | ED50 [2] | CATR score at max dose ([3]; at 75 mg/kg, theoretical maximum score 6, 60 and 120 minutes) | ED50 [1, 5] | CATR score at max dose ([3]; rat, in vivo, 14 mg/kg) | CATR score at max dose ([3]; at 56 mg/kg, theoretical maximum score 6, 60 and 120 minutes) |
| --- | --- | --- | --- | --- | --- | --- |
| CN1CCC(=C(c2ccccc2)c2ccc(Cl)s2)CC1 [Compound C, 1-methyl-4-[(-5-chloro-2-thienyl)-phenyl]methylenepiperidine, reference compound] | 22 mg/kg |  |  |  |  |  |
| Cc1csc(C(=C2CCN(C)CC2)c2ccc(F)cc2)c1 [Example 3, 1-methyl-4-[(4-methyl-2-thienyl)-(4-fluoropheny)]methylene-piperidine] | 1.5 mg/kg | > 75 mg/kg | 0.2 | 8.6 mg/kg |  |  |
| CN1CCC(=C(c2ccccc2)c2cccs2)CC1 [Compound B, 1-methyl-4-(2-thienyl)-phenyl-methylenepiperidine, reference compound] | 22 mg/kg |  |  |  |  |  |
| CN(C)CCCN1c2ccccc2Sc2ccc(Cl)cc21 [chlorpromazine, reference compound] |  | 4.8 mg/kg |  |  | 5.3 |  |
| CN1CCC(=C(c2ccc(F)cc2)c2cccs2)CC1 [Compound A, 1-methyl-4-[(2-thienyl)-(4-fluorophenyl)]methylenepiperidine, reference compound] | 2.8 mg/kg |  |  | 100 mg/kg |  |  |
| CN1CCC(=C(c2ccc(F)cc2)c2cc(Cl)cs2)CC1 [Example 2, 1-methyl-4-[(4-chloro-2-thienyl)-(4-fluorophenyl)]-methylene-piperidine] | 0.6 mg/kg | > 50 mg/kg |  | 5 mg/kg |  | 0.2 |
